Experimental data published in US20220107328A1, “METHODS OF TREATING LIVER DISEASES” (Camp4 Therapeutics Corporation, priority 2018, published 2022).
Values joined by “and” are separate entries in the source; they are usually repeats but may differ in a detail not shown here. Equal values may be shown once.

Tests used:
[1] = tested on: PNPLA3 mRNA; assay: qRT-PCR of PNPLA3 mRNA in compound-treated primary human hepatocytes; details: for PNPLA3 mRNA, TGFβ and BMP pathway inhibitors (in words) / Relative PNPLA3 mRNA expression: primary human hepatocytes; for Relative PNLPA3 mRNA expression in HU4282 cells: Lonza HU4282 hepatocytes; for Relative PNPLA3 mRNA expression in Yecuris RMG cells: Yecuris RMG hepatocytes; for Relative PNPLA3 mRNA levels: 10 μM, human hepatocytes, mean of three replicates ± standard deviation; for Relative PINPLA3 mRNA: hepatocytes
[2] = tested on: PNPLA3 mRNA; assay: qRT-PCR of PNPLA3 mRNA in human primary hepatic stellate cells; assay type: cell-based; details: for Relative PNPLA3 mRNA expression: stellate cells, Table 37; for Relative PNPLA3 nRNA expression in Stellate cells: 16 hours; for Primary Stellate cells PNPLA3 (fold change in mRNA expression): 3 μM
[3] = tested on: PCSK9 mRNA; assay: qRT-PCR of PCSK9 mRNA in primary hepatocytes; assay type: cell-based, human; details: donor 4178, 3 μM, relative to GUSB
[4] = tested on: COL1A1 mRNA; assay: qRT-PCR of COL1A1 mRNA in human primary hepatic stellate cells; assay type: cell-based; details: 3 μM, relative to GAPDH
[5] = 3.3 uM, 16 hours, relative to GUSB
[6] = 10 uM, 16 hours, relative to GUSB
[7] = Syk pathway inhibitors, normalized to B2M

COc1cc(-c2cc(-c3cccc(O)c3)cnc2N)cc(OC)c1OC [K02288]
PNPLA3 mRNA, TGFβ and BMP pathway inhibitors (in words) [1]: did not decrease PNPLA3 mRNA in primary human hepatocytes | Relative PNPLA3 mRNA expression ([1]; 3.3 uM, Table 35): 1.259 ± 0.3268 | Relative PNPLA3 mRNA expression ([1]; 10 uM, Table 35): 2.687 ± 0.4146

c1ccc2c(-c3cnn4cc(-c5ccc(N6CCNCC6)cc5)cnc34)ccnc2c1 [LDN193189]
Relative PNPLA3 mRNA expression ([2]; 0.01 uM): 0.95 ± 0.09 | Relative PNPLA3 mRNA expression ([2]; 0.1 uM): 0.83 ± 0.12 | Relative PNPLA3 mRNA expression ([2]; 1 uM): 0.76 ± 0.07 | Relative PNPLA3 mRNA expression ([2]; 10 uM): 9.25

c1cc(-c2cnn3cc(-c4ccc(N5CCNCC5)cc4)cnc23)c2cccnc2c1 [LDN212854, LDN-212854]
Relative PNPLA3 mRNA expression ([2]; 0.01 uM): 0.92 ± 0.22 | Relative PNPLA3 mRNA expression ([2]; 0.1 uM): 1.02 ± 0.16 | Relative PNPLA3 mRNA expression ([2]; 1 uM): 0.67 ± 0.12 | Relative PNPLA3 mRNA expression ([2]; 10 uM): 7.43 ± 3.91 | PNPLA3 mRNA, TGFβ and BMP pathway inhibitors (in words) [1]: did not decrease PNPLA3 mRNA in primary human hepatocytes | Relative PNPLA3 mRNA expression ([1]; 3.3 uM, Table 35): 1.095 ± 0.1332 | Relative PNPLA3 mRNA expression ([1]; 10 uM, Table 35): 0.9339 ± 0.04093

N#CCNC(=O)c1ccc(-c2ccnc(Nc3ccc(N4CCOCC4=O)cc3)n2)cc1 [M21]
PNPLA3 mRNA expression (in words) ([2]; stellate cells ST1 and ST8, 16 hours, relative to GAPDH): reduced PNPLA3 mRNA expression, with the most significant decrease after treatment with 3.3 μM M21 | Relative PNPLA3 nRNA expression in Stellate cells ([2]; stellate cells donor ST1, 3.3 uM, relative to GAPDH): 0.26 ± 0.11 | Relative PNPLA3 nRNA expression in Stellate cells ([2]; stellate cells donor ST1, 10 uM, relative to GAPDH): 0.54 ± 0.10 | Relative PNPLA3 nRNA expression in Stellate cells ([2]; stellate cells donor ST8, 3.3 uM, relative to GAPDH): 0.31 ± 0.01 | Relative PNPLA3 nRNA expression in Stellate cells ([2]; stellate cells donor ST8, 10 uM, relative to GAPDH): 0.49 ± 0.05 | Relative PNLPA3 mRNA expression in HU4282 cells [1, 5]: 0.213 ± 0.028 | Relative PNLPA3 mRNA expression in HU4282 cells [1, 6]: 0.138 ± 0.015 | PNPLA3 mRNA expression (in words) ([1]; Yecuris RMG and Lonza HU4282 hepatocytes, 16 hours, relative to GUSB): reduced PNPLA3 mRNA expression in a dose dependent manner | Relative PNPLA3 mRNA expression in Yecuris RMG cells [1, 5]: 0.910 ± 0.068 | Relative PNPLA3 mRNA expression in Yecuris RMG cells [1, 6]: 0.165 ± 0.018

CNS(=O)(=O)C[C@H]1CC[C@H](N(C)c2ncnc3[nH]ccc23)CC1 [Oclacitinib]
Relative PNPLA3 mRNA levels ([1]; JAK inhibitors, qRT-PCR): 0.56 ± 0.03 | PNPLA3 expression (in words) ([1]; validation in human hepatocytes from a second donor, qRT-PCR): efficient downregulation of PNPLA3

C=CC(=O)N1C[C@H](COc2nc(Nc3cnn(C)c3)nc3[nH]cc(Cl)c23)[C@@H](OC)C1 [PF-06459988]
Relative PINPLA3 mRNA ([1]; 1 uM): 0.965 | Relative PINPLA3 mRNA ([1]; 10 uM): 0.398

COc1ccc(COc2cc3oc(=O)c4cc(C(C)O)ccc4c3cc2OC)cc1 (stereo not shown) [Palomid 529 (P529)]
Primary Hepatocytes 4178 PCSK9 (fold change in mRNA expression) [3]: 1.05 | Primary Stellate cells COL1A1 (fold change in mRNA expression) [4]: 1.10 | Primary Stellate cells PNPLA3 (fold change in mRNA expression) ([2]; relative to GAPDH): 0.97

NCCC(O)(P(=O)(O)O)P(=O)(O)O [Pamidronate]
Relative PINPLA3 mRNA ([1]; 10 uM): 0.2

C/C=C1\NC(=O)[C@H]2CSSCC/C=C/[C@H](CC(=O)N[C@H](C(C)C)C(=O)N2)OC(=O)[C@H](C(C)C)NC1=O [Romidepsin (FK228, Depsipeptide)]
Relative PINPLA3 mRNA ([1]; 10 uM): 0.3

N#CC[C@H](C1CCCC1)n1cc(-c2ncnc3[nH]ccc23)cn1 [Ruxolitinib]
Relative PNPLA3 mRNA levels ([1]; JAK inhibitors, qRT-PCR): 0.89 ± 0.17

CN1C/C=C/CCOc2cccc(c2)-c2ccnc(n2)Nc2cccc(c2)C1 [SB1317]
Relative PINPLA3 mRNA ([1]; 1 uM): 0.400 | Relative PINPLA3 mRNA ([1]; 10 uM): 0.413

CC1(C)CN(C(=O)c2ccc(-c3cccc4nc(NC(=O)C5CC5)nn34)cc2)C1 [Solcitinib]
Relative PNPLA3 mRNA levels ([1]; JAK inhibitors, qRT-PCR): 1.10 ± 0.01

Cc1cccc(-c2[nH]c(CNc3ccccc3F)nc2-c2ccc3ncnn3c2)n1 [TEW-7197]
Relative PNPLA3 mRNA expression ([1]; 0.04 uM, Table 34): 1.219 ± 0.186 | Relative PNPLA3 mRNA expression ([1]; 0.12 uM, Table 34): 0.822 ± 0.152 | Relative PNPLA3 mRNA expression ([1]; 0.37 uM, Table 34): 0.613 ± 0.035 | Relative PNPLA3 mRNA expression ([1]; 3.3 uM, Table 34): 0.560 ± 0.134

Nc1nc(N)c2nc(-c3cccc(O)c3)c(-c3cccc(O)c3)nc2n1 [TG100-115]
Primary Hepatocytes 4178 PCSK9 (fold change in mRNA expression) [3]: 0.69 | Primary Stellate cells COL1A1 (fold change in mRNA expression) [4]: 1.11 | Primary Stellate cells PNPLA3 (fold change in mRNA expression) ([2]; relative to GAPDH): 1.07

CC[C@@H]1CN(C(=O)NCC(F)(F)F)C[C@@H]1c1cnc2cnc3[nH]ccc3n12 [Upadacitinib]
Relative PNPLA3 mRNA levels ([1]; JAK inhibitors, qRT-PCR): 0.93 ± 0.15

c1cn2cc(-c3ccc4cn[nH]c4c3)nc(Nc3ccc(N4CCOCC4)cc3)c2n1 [entospletinib]
Relative PNPLA3 mRNA levels [1, 7]: 0.67 ± 0.05

COC(=O)C1=C(C#N)NC(C)=C(C(=O)OC(C)C)C1c1cccc([N+](=O)[O-])c1 (stereo not shown) [nilvadipine]
Relative PNPLA3 mRNA levels [1, 7]: 0.61 ± 0.08

TGFB1
Relative PNPLA3 mRNA expression ([2]; 0.001 ug/ML): 0.93 ± 0.11 and 1.50 ± 0.17 | Relative PNPLA3 mRNA expression ([2]; 0.01 ug/ML): 2.35 ± 0.39 and 1.40 ± 0.10
